Test results taken from paper PMC2229105 (The Journal of General Physiology, 1992).
Like-named read-outs stand apart in the source and are kept apart here.

Key:
[1] = test system: T-type Ca channels (guinea pig atrial cells); experiment: whole-cell patch clamp, tail current analysis, modulated receptor theory; type: cell-based, Cavia porcellus; conditions: read-out: KI, inactivated state (apparent)
[2] = test system: T-type Ca channels in GH3 cells; experiment: as above; type: cell-based, Rattus norvegicus; conditions: read-out: KI; inactivated state (apparent); six experiments

With `CC1=C(C(=O)OC(C)C)[C@@H](c2cccc3nonc23)C([N+](=O)[O-])=C(C)N1` [(-)-(R)-202-791] the Kd ([1]; 30-s prepulse) was 0.0153 µM.

`CC(C)COCC(CN(Cc1ccccc1)c1ccccc1)N1CCCC1` (stereo not shown) [bepridil] showed a Kd ([1]; from block by 0.5 µM drug) of 1.24 µM.

`CCOC(=O)C1=C(C)NC(C)=C(C(=O)OC)C1c1cccc(Cl)c1Cl` (stereo not shown) [felodipine] was tested, and the Kd [2] was 0.68 ± 0.22 µM.

With `COC(=O)C1=C(C)NC(C)=C(C(=O)OC(C)C)C1c1cccc2nonc12` (stereo not shown) [isradipine] the Kd ([1]; 30-s prepulse) was 0.0204 µM.
